Source: paper PMC7177888, “Aryl-4,5-dihydro-1H-pyrazole-1-carboxamide Derivatives Bearing a Sulfonamide Moiety Show Single-digit Nanomolar-to-Subnanomolar Inhibition Constants against the Tumor-associated Human Carbonic Anhydrases IX and XII” (International Journal of Molecular Sciences, 2020)
Where two headings read alike, the source gives them in different places.

Columns and labels:
Assay in all cases: stopped-flow CO2 hydrase assay
Type in all cases: biochemical
[1] = molecular target: T1, CA II (Homo sapiens, UniProt P00918)
T1 construct: gene CA2; recombinant, obtained in-house
Summary of the method: (§1)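 Using an Applied Photophysics stopped-flow instrument, CO2 hydration (1.7–17 mM CO2) by in-house recombinant human carbonic anhydrase isoforms was followed at 557 nm for 10–100 s in 20 mM Hepes (pH 7.5), 20 mM Na2SO4 and 0.2 mM phenol red, after a 15 min enzyme–inhibitor preincubation at room temperature. Ki was fitted by nonlinear least squares with the Cheng–Prusoff equation from initial rates corrected for the uncatalysed reaction. Reported values average at least three determinations.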

[2] = molecular target: T2, CA VII (Homo sapiens, UniProt P43166)
T2 construct: gene CA7; recombinant, obtained in-house
T2 sequence (P43166 whole entry): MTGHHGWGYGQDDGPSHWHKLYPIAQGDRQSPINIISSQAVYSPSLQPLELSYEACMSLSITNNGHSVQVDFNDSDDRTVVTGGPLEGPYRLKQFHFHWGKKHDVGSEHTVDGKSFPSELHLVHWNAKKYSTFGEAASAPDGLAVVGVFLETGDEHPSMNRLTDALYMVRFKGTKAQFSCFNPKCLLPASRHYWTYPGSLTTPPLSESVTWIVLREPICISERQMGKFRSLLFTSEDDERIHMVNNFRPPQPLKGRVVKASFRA
Summary of the method: as §1

[3] = molecular target: T3, CA XII (Homo sapiens, UniProt O43570)
T3 construct: gene CA12; recombinant, obtained in-house
T3 sequence (O43570 25-354): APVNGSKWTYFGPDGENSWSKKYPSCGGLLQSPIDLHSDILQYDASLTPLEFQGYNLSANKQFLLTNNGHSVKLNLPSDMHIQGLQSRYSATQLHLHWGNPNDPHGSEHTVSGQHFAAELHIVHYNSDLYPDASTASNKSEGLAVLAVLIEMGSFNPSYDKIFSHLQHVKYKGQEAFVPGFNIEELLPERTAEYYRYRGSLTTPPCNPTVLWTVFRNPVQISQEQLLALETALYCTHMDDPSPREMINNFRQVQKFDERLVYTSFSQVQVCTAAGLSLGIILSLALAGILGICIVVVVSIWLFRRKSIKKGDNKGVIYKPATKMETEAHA
Summary of the method: as §1

[4] = molecular target: T4, CA IX (Homo sapiens, UniProt Q16790)
T4 construct: gene CA9; recombinant, obtained in-house
Summary of the method: as §1

[5] = molecular target: T5, CA I (Homo sapiens, UniProt P00915)
T5 construct: gene CA1; recombinant, obtained in-house
T5 sequence (P00915 2-261): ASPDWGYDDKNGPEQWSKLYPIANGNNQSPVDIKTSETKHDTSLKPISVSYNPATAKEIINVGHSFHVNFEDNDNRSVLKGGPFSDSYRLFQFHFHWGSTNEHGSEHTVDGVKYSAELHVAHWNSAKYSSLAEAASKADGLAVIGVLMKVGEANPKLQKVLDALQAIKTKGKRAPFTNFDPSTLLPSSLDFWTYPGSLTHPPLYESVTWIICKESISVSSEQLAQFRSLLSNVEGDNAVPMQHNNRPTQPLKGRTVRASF
Summary of the method: as §1

Compound | Ki [1] | Ki [2] | Ki [3] | Ki ([4]; read-out: KI (nM) / CA IX) | Ki [5] | Ki ([4]; read-out: KI (nM) / CA II)
Cc1ccc(C2CC(c3ccc(Cl)cc3)=NN2C(=O)Nc2ccc(S(N)(=O)=O)cc2)cc1 (stereo not drawn) [compound 13, 3-(4-Chlorophenyl)-N-(4-sulfamoylphenyl)-5-(p-tolyl)-4,5-dihydro-1H-pyrazole-1-carboxamide] | 12.3 nM | 4.5 nM | 9.2 nM | 2.9 nM | 66.7 nM | –
NS(=O)(=O)c1ccc(NC(=O)N2N=C(c3ccccc3)CC2c2ccc(Cl)cc2)cc1 (stereo not drawn) [compound 6, 5-(4-Chlorophenyl)-3-phenyl-4,5-dihydro-pyrazole-1-carboxylic acid (4-sulfamoyl-phenyl)-amide] | 8.2 nM | 7.7 nM | 1.2 nM | 1.4 nM | 36.2 nM | –
NS(=O)(=O)c1ccc(NC(=O)N2N=C(c3ccccc3)CC2c2cccs2)cc1 (stereo not drawn) [compound 9, 3-Phenyl-5-thiophene-2-yl-4,5-dihydro-pyrazole-1-carboxylic acid (4-sulfamoyl-phenyl)-amide] | 5.2 nM | 1.9 nM | 2.5 nM | 1.4 nM | 185 nM | –
NS(=O)(=O)c1ccc(NC(=O)N2N=C(c3ccc(Cl)cc3)CC2c2ccc(Cl)cc2)cc1 (stereo not drawn) [compound 14, 3,5-Bis(4-chlorophenyl)-N-(4-sulfamoylphenyl)-4,5-dihydro-1H-pyrazole-1-carboxamide] | 12.7 nM | 3.3 nM | 1.1 nM | 11.4 nM | 238 nM | –
NS(=O)(=O)c1ccc(NC(=O)N2N=C(c3ccccc3)CC2c2ccc(Cl)cc2Cl)cc1 (stereo not drawn) [compound 11, 5-(2,4-Dichlorophenyl)-3-phenyl-4,5-dihydro-pyrazole-1-carboxylic acid (4-sulfamoyl-phenyl)-amide] | 5.4 nM | 2.5 nM | 0.84 nM | 1.4 nM | 39.5 nM | –
NS(=O)(=O)c1ccc(NC(=O)N2N=C(c3ccccc3)CC2c2ccccc2)cc1 (stereo not drawn) [compound 5, 3,5-Diphenyl-4,5-dihydro-pyrazole-1-carboxylic acid (4-sulfamoyl-phenyl)-amide] | 67.3 nM | 33.2 nM | 7.7 nM | 1.3 nM | 382 nM | –
NS(=O)(=O)c1ccc(NC(=O)N2N=C(c3ccccc3)CC2c2c(F)cccc2Cl)cc1 (stereo not drawn) [compound 8, 5-(2-Chloro-6-fluorophenyl)-3-phenyl-4,5-dihydro-pyrazole-1-carboxylic acid (4-sulfamoyl-phenyl)-amide] | 5.2 nM | 2.4 nM | 1.4 nM | 1.5 nM | 38.3 nM | –
NS(=O)(=O)c1ccc(NC(=O)N2N=C(c3ccc(Cl)cc3)CC2c2ccccc2)cc1 (stereo not drawn) [compound 12, 3-(4-Chlorophenyl)-5-phenyl-N-(4-sulfamoylphenyl)-4,5-dihydro-1H-pyrazole-1-carboxamide] | 233 nM | 350 nM | 9.2 nM | 16.5 nM | 239 nM | –
NS(=O)(=O)c1ccc(NC(=O)N2N=C(c3ccccc3)CC2c2ccc(F)cc2)cc1 (stereo not drawn) [compound 7, 5-(4-Flurophenyl)-3-phenyl-4,5-dihydro-pyrazole-1-carboxylic acid (4-sulfamoyl-phenyl)-amide] | 58.2 nM | 2.3 nM | 6.3 nM | 1.5 nM | 252 nM | –
NS(=O)(=O)c1ccc(NC(=O)N2N=C(c3ccccc3)CC2c2c3ccccc3cc3ccccc23)cc1 (stereo not drawn) [compound 10, 5-Anthracene-9-yl-3-phenyl-4,5-dihydro-pyrazole-1-carboxylic acid (4-sulfamoyl-phenyl)-amide] | 7.1 nM | 2.4 nM | 6.8 nM | 1.3 nM | 293 nM | –

Now from value to compound:

Ki [1] | Ki [2] | Ki [3] | Ki ([4]; read-out: KI (nM) / CA IX) | Ki [5] | Ki ([4]; read-out: KI (nM) / CA II) | Compound
9.3 nM | 2.3 nM | 1.5 nM | 2.2 nM | 166 nM | – | COc1ccc(C2CC(c3ccc(Cl)cc3)=NN2C(=O)Nc2ccc(S(N)(=O)=O)cc2)cc1OC (stereo not drawn) [compound 22, 3-(4-Chlorophenyl)-5-(3,4-dimethoxyphenyl)-N-(4-sulfamoylphenyl)-4,5-dihydro-1H-pyrazole-1-carboxamide]
9.2 nM | 2.9 nM | 0.62 nM | 2.5 nM | 726 nM | – | NS(=O)(=O)c1ccc(NC(=O)N2N=C(c3ccc(Cl)cc3)CC2c2cccs2)cc1 (stereo not drawn) [compound 18, 3-(4-Chlorophenyl)-N-(4-sulfamoylphenyl)-5-(thiophen-2-yl)-4,5-dihydro-1H-pyrazole-1-carboxamide]
71.3 nM | 3.2 nM | 1 nM | 2.7 nM | 617 nM | – | NS(=O)(=O)c1ccc(NC(=O)N2N=C(c3ccc(Cl)cc3)CC2c2ccc(F)cc2)cc1 (stereo not drawn) [compound 15, 3-(4-Chlorophenyl)-5-(4-fluorophenyl)-N-(4-sulfamoylphenyl)-4,5-dihydro-1H-pyrazole-1-carboxamide]
6.3 nM | 2.9 nM | 6.7 nM | 1.4 nM | 44.4 nM | – | NS(=O)(=O)c1ccc(NC(=O)N2N=C(c3ccc(Br)cc3)CC2c2ccccc2)cc1 (stereo not drawn) [compound 23, 3-(4-Bromophenyl)-5-phenyl-45-dihydro-pyrazole-1-carboxylic acid (4-sulfamoyl-phenyl)-amide]
10.8 nM | 2.3 nM | 6.8 nM | 2.7 nM | 42.7 nM | – | NS(=O)(=O)c1ccc(NC(=O)N2N=C(c3ccc(Cl)cc3)CC2c2c(F)cccc2Cl)cc1 (stereo not drawn) [compound 19, 5-(2-Chloro-6-fluorophenyl)-3-(4-chlorophenyl)-N-(4-sulfamoylphenyl)-4,5-dihydro-1H-pyrazole-1-carboxamide]
9.4 nM | 2.7 nM | 0.82 nM | 2.8 nM | 368 nM | – | COc1ccc(C2CC(c3ccc(Cl)cc3)=NN2C(=O)Nc2ccc(S(N)(=O)=O)cc2)cc1 (stereo not drawn) [compound 21, 3-(4-Chlorophenyl)-5-(4-methoxyphenyl)-N-(4-sulfamoylphenyl)-4,5-dihydro-1H-pyrazole-1-carboxamide]
7.6 nM | 2.1 nM | 0.99 nM | 76.6 nM | 74.2 nM | – | NS(=O)(=O)c1ccc(NC(=O)N2N=C(c3ccc(Cl)cc3)CC2c2ccccc2O)cc1 (stereo not drawn) [compound 20, 3-(4-Chlorophenyl)-5-(2-hydroxyphenyl)-N-(4-sulfamoylphenyl)-4,5-dihydro-1H-pyrazole-1-carboxamide]
5.5 nM | 2.6 nM | 2.4 nM | 1.4 nM | 38.2 nM | – | NS(=O)(=O)c1ccc(NC(=O)N2N=C(c3ccc(Br)cc3)CC2c2ccc(F)cc2)cc1 (stereo not drawn) [compound 25, 3-(4-Bromophenyl)-5-(4-flurophenyl)-4,5-dihydro-pyrazole-1-carboxylic acid (4-sulfamoyl-phenyl)-amide]
10.7 nM | 2.7 nM | 0.89 nM | 14.3 nM | 45.5 nM | – | NS(=O)(=O)c1ccc(NC(=O)N2N=C(c3ccc(Br)cc3)CC2c2ccc(Cl)cc2)cc1 (stereo not drawn) [compound 24, 3-(4-Bromophenyl)-5-(4-chlorophenyl)-4,5-dihydro-pyrazole-1-carboxylic acid (4-sulfamoyl-phenyl)-amide]
13.5 nM | 27.6 nM | 1.3 nM | 15 nM | 770 nM | – | NS(=O)(=O)c1ccc(NC(=O)N2N=C(c3ccc(Cl)cc3)CC2c2ccc(Cl)cc2Cl)cc1 (stereo not drawn) [compound 17, 3-(4-Chlorophenyl)-5-(2,4-dichlorophenyl)-N-(4-sulfamoylphenyl)-4,5-dihydro-1H-pyrazole-1-carboxamide]
8.8 nM | 4.3 nM | 1.7 nM | – | 297 nM | 8 nM | NS(=O)(=O)c1ccc(NC(=O)N2N=C(c3ccc(Cl)cc3)CC2c2ccccc2Cl)cc1 (stereo not drawn) [compound 16, 5-(2-Chlorophenyl)-3-(4-chlorophenyl)-N-(4-sulfamoylphenyl)-4,5-dihydro-1H-pyrazole-1-carboxamide]
